Each structure is given as a SMILES string.

For this assay, the system named is GL261-luc cells. Briefly: GL261-luc intracranial malignant glioma mouse model: survival and bioluminescence. The assay is classed as in vivo, albino C57BL/6 mice. As to conditions: TMZ (5×50 mg/kg), animals maintained on SD.

Experimental: GL261-luc cells expressing luciferase were stereotactically implanted into the right frontal lobe of immune-competent albino C57BL/6 mice (NCI, Frederick, Md.). Following intracranial implantation, animals were fed standard rodent chow (SD) and were randomized to treatment groups on day 3 (SD vs KetoCal® with and without radiation or TMZ) based on bioluminescent signal (IVIS® Spectrum in vivo imaging system, Caliper Life Sciences, Hopkinton, Mass.). […] Mice were maintained on a 12 hour light/dark cycle and KetoCal® or SD was available ad libitum.

As for `Cn1nnc2c(C(N)=O)ncn2c1=O` [TMZ, temozolomide], the median survival is reported as 28 days.

Source of the values: patent publication US20140011749A1, “KETOGENIC DIET COMPOSITION FOR THE TREATMENT OF CHEMO THERAPY AND/OR RADIATION THERAPY PATIENTS” (priority 2011, published 2014).
